The source of these data is patent US20230047825A1, “ANTIMICROBIAL PEPTIDES” (priority 2019, published 2023).

The subject of experiment [1] is Pseudomonas aeruginosa PA01. Kind of experiment: Antibacterial activity assay (broth microdilution MIC). The format is cell-based. To be noted: for MIC, Stability in serum (MH) / MIC on initial panels: in µg/mL; for MIC on initial panels: medium and unit not given.
The nature of experiment [2]: Electrophysiology (Port-a-Patch patch-clamp) on model membranes. An excerpt: The depth of insertion into each membrane is shown as the Z-position for each residue, averaged over all four peptides, relative to the phosphate group plane in the upper POPE/POPG (A/E/I) or POPG (C/G/K) bilayer leaflet in six MD simulations. Positive or negative values indicate the peptides are below or above the phosphate group. Representative current traces illustrating membrane activity when DPhPE/DPhPG (B/F/J) or DPhPG (D/H/L) model membranes are challenged with each peptide at the indicated concentration (lowest concentration that induced detectable activity). Data is for pleurocidin (A-D), pleurocidin-KR (E-H) and pleurocidin-VA (I-L). Membrane disordering by each peptide in mixed POPE/POPG bilayers is shown with data obtained from ^2H solid-state NMR (M/N) or from MD simulations where order parameters are calculated for all lipids within 4 Å of a peptide (O/P).
Molecular dynamics simulations. Simulations were carried out on either the ARCHER Cray XC30 supercomputer, or Dell Precision quad core T3400 or T3500 workstations equipped with a 1 kW Power supply (PSU) and two NVIDA PNY GeForce GTX570 or GTX580 graphics cards using Gromacs.^53 The CHARMM36 all-atom force field was used in all simulations^54-56. All simulations were run, as described previously^20 and for a total of 200 nanoseconds and repeated twice, with peptides inserted at different positions and orientations, giving a total of approximately 4.0 μs simulation. Liposome preparation and circular dichroism (CD) spectroscopy. Small unilamellar vesicles (SUV) were produced and far-UV spectra of the peptides obtained as described previously^20 using a Chirascan Plus spectrometer (Applied Photophysics, Leatherhead, UK) with samples maintained at 310 K. For liposome experiments the lipid concentration was 5 mM and a peptide to lipid molar ratio of 1:100 was maintained while the SDS micelles concentration was 20 mM with 200 μM peptide. Electrophysiology experiments (Patch-clamp). Patch clamp experiments were performed using the Port-a-Patch® (Nanion Technologies GmbH, Munich, Germany) with giant unilamellar vesicles (GUVs) composed of DPhPE/DPhPG (60:40, mol:mol) or DPhPG prepared by the electroformation method using the Nanion Vesicle Prep Pro setup (Nanion Technologies GmbH, Munich, Germany) as described previously.^20
(§1) Synergy experiments were performed following a checkerboard protocol.

For another experiment, the system named is Calu-3. Kind of experiment: Cytotoxicity assay. The format is cell-based. To be noted: value printed in parentheses.
The test system of the next experiment is P. aeruginosa RP73. Kind of experiment: Antibacterial activity assay (broth microdilution MIC). The format is cell-based, Pseudomonas aeruginosa. The settings on record: in µg/mL; for MIC on initial panels: medium and unit not given; for MIC: untitled table, medium/unit not given. Here is the method:
Antibacterial activity assay.
as §1

A further experiment has as its system A549. The experiment is described as follows: Cytotoxicity assay. The format is cell-based. The settings on record: value printed in parentheses.
Experiment [3] concerns Staphylococcus aureus ATCC 33591 (MRSA). The experiment is described as follows: microbe, parasite or virus in culture. The settings on record: ATCC 33591. Here is the method: (§2) The S. aureus strains ATCC 29213, ATCC 19636, ATCC 33591 (MRSA), BAA-1556 (MRSA USA 300) were obtained from the American Type Culture Collection (ATCC). […] The species identity was confirmed with 16S rRNA analysis.
(§3) Two broth mediums were used, Mueller Hinton Broth and RPMI 1640+5% fetal bovine serum. Test substances were evaluated in 11-point titrations and performed in duplicate.
(§4) The direct colony suspension method was used to prepare inoculated broth. Isolated colonies were taken from an 18-24 h culture plate. Optical density measurements (OD620nm) were used to estimate the bacterial density. […] The stock solutions were diluted by 2-fold serial titrations with their respective vehicles for a total of 11 concentrations.
(§5) A 4 μL aliquot of each dilution was added to 196 μL of broth medium seeded with the organism in wells of a sterilized 96 well polypropylene plate (Nunc™ 249949) using aluminum foil as cover. The final bacterial count was 2 to 8×10^5 CFU/mL. […] The final test article concentration range was 32 to 0.0313 μg/mL.
(§6) Each test substance dilution was evaluated in duplicate on one test occasion. […] Plates were incubated at 35-37° C. for 18 h. The test plates were visually examined and each well was visually scored for growth or complete inhibition of growth. The MIC value was recorded.

Experiment [4] has as its system Staphylococcus aureus ATCC BAA-1556 (USA300, MRSA). The experiment is described as follows: microbe, parasite or virus in culture. The settings on record: ATCC BAA-1556. Here is the method: as §2, §3, §4, §5, §6
Experiment [5] concerns Staphylococcus aureus ATCC 29213. The experiment is described as follows: microbe, parasite or virus in culture. The settings on record: ATCC 29213. How it is done: as §2, §3, §4, §5, §6
In experiment [6] the test system is Staphylococcus aureus ATCC 19636 (Smith). Kind of experiment: microbe, parasite or virus in culture. The settings on record: ATCC 19636. Here is the method: as §2, §3, §4, §5, §6
Setting [7] is: untitled table, medium/unit inferred, values match RPMI of Table 2.

Each structure is given as a SMILES string. Values after ≈ are worked out from the molar mass of the structure shown. Marks after values point to notes of the source that are not given here. Where a SMILES comes first, the peptide text is derived from it.

As for `CC(C)C[C@H](NC(=O)[C@H](Cc1ccc(O)cc1)NC(=O)[C@H](Cc1c[nH]cn1)NC(=O)[C@@H](NC(=O)[C@H](CC(C)C)NC(=O)[C@H](C)NC(=O)[C@H](C)NC(=O)[C@H](CCCCN)NC(=O)CNC(=O)[C@H](C)NC(=O)[C@H](Cc1c[nH]cn1)NC(=O)[C@H](CCCCN)NC(=O)CNC(=O)[C@H](C)NC(=O)[C@H](Cc1c[nH]cn1)NC(=O)[C@H](C)NC(=O)[C@H](C)NC(=O)[C@H](CCCCN)NC(=O)[C@H](CCCCN)NC(=O)[C@H](Cc1ccccc1)NC(=O)[C@H](Cc1ccccc1)NC(=O)[C@H](CO)NC(=O)CNC(=O)[C@H](Cc1c[nH]c2ccccc12)NC(=O)CN)[C@@H](C)O)C(N)=O` [Pleurocidin-VA] (H-GWGSFFKKAAHAGKHAGKAALTHYL-NH2; N-terminus assumed), the “MIC, Stability in serum (MH)” value in [1] (No serum) is 16*; in [1] (Serum (10% fetal bovine serum)) it was >128. In addition, the “MIC on initial panels” value in experiment [1] is on record as 16-32. Further, the MIC in experiment [1] (setting [7]) was > 32 µg/mL. The “Peptide concentration necessary to start membrane activity” value (from here on “Peptide concentration necessary”) in experiment [2] (DPhPG) was 2.5 µM.

For `CC(C)C[C@@H](NC(=O)[C@@H](Cc1ccc(O)cc1)NC(=O)[C@@H](Cc1c[nH]cn1)NC(=O)[C@H](NC(=O)[C@@H](CC(C)C)NC(=O)[C@@H](C)NC(=O)[C@@H](C)NC(=O)[C@@H](CCCNC(=N)N)NC(=O)CNC(=O)[C@H](NC(=O)[C@@H](Cc1c[nH]cn1)NC(=O)[C@@H](CCCNC(=N)N)NC(=O)CNC(=O)[C@H](NC(=O)[C@@H](Cc1c[nH]cn1)NC(=O)[C@@H](C)NC(=O)[C@@H](C)NC(=O)[C@@H](CCCNC(=N)N)NC(=O)[C@@H](CCCNC(=N)N)NC(=O)[C@@H](Cc1ccccc1)NC(=O)[C@@H](Cc1ccccc1)NC(=O)[C@@H](CO)NC(=O)CNC(=O)[C@@H](Cc1c[nH]c2ccccc12)NC(=O)CN)C(C)C)C(C)C)[C@H](C)O)C(N)=O` [D-pleurocidin-KR] (HELM PEPTIDE1{G.[dW].G.[dS].[dF].[dF].[dR].[dR].[dA].[dA].[dH].[dV].G.[dR].[dH].[dV].G.[dR].[dA].[dA].[dL].[dT].[dH].[dY].[dL].[am]}$$$$V2.0; N-terminus assumed), the “Toxicity Calu-3 (EC50), Peptide concentration” value in the experiment on Calu-3 is “(39.1 ± 1.8) μg/ml”. Moreover, the “MIC on initial panels” value in the experiment with P. aeruginosa RP73 is given as 16; in experiment [1], 4. The MIC in the experiment with P. aeruginosa RP73 amounted to 33; in experiment [1] (setting [7]), 16 µg/mL (≈ 5.67 µM); in experiment [3], 2 µg/mL (≈ 0.709 µM); in experiment [4], 2 µg/mL (≈ 0.709 µM); in [5] it was 2 µg/mL (≈ 0.709 µM); in experiment [6], 2 µg/mL (≈ 0.709 µM). Further, in the experiment with A549, the “Toxicity A549 (EC50), Peptide concentration” value was “(56.5 ± 4.5) μg/ml”. For the same molecule, the “MIC, Stability in serum (MH)” value in experiment [1] (No serum) and in [1] (Serum (10% fetal bovine serum)) was 4 each time.

As to `CC(C)C[C@H](NC(=O)[C@H](Cc1ccc(O)cc1)NC(=O)[C@H](Cc1c[nH]cn1)NC(=O)[C@@H](NC(=O)[C@H](CC(C)C)NC(=O)[C@H](C)NC(=O)[C@H](C)NC(=O)[C@H](CCCCN)NC(=O)CNC(=O)[C@@H](NC(=O)[C@H](Cc1c[nH]cn1)NC(=O)[C@H](CCCCN)NC(=O)CNC(=O)[C@@H](NC(=O)[C@H](Cc1c[nH]cn1)NC(=O)[C@H](C)NC(=O)[C@H](C)NC(=O)[C@H](CCCCN)NC(=O)[C@H](CCCCN)NC(=O)[C@H](Cc1ccccc1)NC(=O)[C@H](Cc1ccccc1)NC(=O)[C@H](CO)NC(=O)CNC(=O)[C@H](Cc1c[nH]c2ccccc12)NC(=O)CN)C(C)C)C(C)C)[C@@H](C)O)C(N)=O` [Pleurocidin, reference compound] (H-GWGSFFKKAAHVGKHVGKAALTHYL-NH2; N-terminus assumed), the results for the MIC in [1] ((MH)), in experiment [1] ((RPMI)) and in [1] (setting [7]) were 64 µg/mL (≈ 23.6 µM), > 32 µg/mL and > 32 µg/mL, respectively. Besides, the figures for the “MIC, Stability in serum (MH)” value in [1] (No serum) and in experiment [1] (Serum (10% fetal bovine serum)) were 16 and 32, respectively. Further, the “MIC on initial panels” value in experiment [1] came to 64. In addition, the “Peptide concentration necessary” value came out at 10 µM in [2] (DPhPE/DPhPG) and 5 µM in experiment [2] (DPhPG).

As for `CC(C)C[C@@H](NC(=O)[C@@H](Cc1ccc(O)cc1)NC(=O)[C@@H](Cc1c[nH]cn1)NC(=O)[C@H](NC(=O)[C@@H](CC(C)C)NC(=O)[C@@H](C)NC(=O)[C@@H](C)NC(=O)[C@@H](CCCCN)NC(=O)CNC(=O)[C@H](NC(=O)[C@@H](Cc1c[nH]cn1)NC(=O)[C@@H](CCCCN)NC(=O)CNC(=O)[C@H](NC(=O)[C@@H](Cc1c[nH]cn1)NC(=O)[C@@H](C)NC(=O)[C@@H](C)NC(=O)[C@@H](CCCCN)NC(=O)[C@@H](CCCCN)NC(=O)[C@@H](Cc1ccccc1)NC(=O)[C@@H](Cc1ccccc1)NC(=O)[C@@H](CO)NC(=O)CNC(=O)[C@@H](Cc1c[nH]c2ccccc12)NC(=O)CN)C(C)C)C(C)C)[C@H](C)O)C(N)=O` [D-pleurocidin] (HELM PEPTIDE1{G.[dW].G.[dS].[dF].[dF].[dK].[dK].[dA].[dA].[dH].[dV].G.[dK].[dH].[dV].G.[dK].[dA].[dA].[dL].[dT].[dH].[dY].[dL].[am]}$$$$V2.0; N-terminus assumed), the “Toxicity Calu-3 (EC50), Peptide concentration” value in the experiment with Calu-3 is “(41.9 ± 1.8) μg/ml”. The results for the “MIC on initial panels” value (with P. aeruginosa RP73; in experiment [1]) were 8-16 and 2, respectively. In addition, the MIC in the experiment on P. aeruginosa RP73 was 16-32; in experiment [1] ((MH)) it was 2 µg/mL (≈ 0.738 µM); in experiment [1] ((RPMI)), 16 µg/mL (≈ 5.9 µM); in experiment [1] (setting [7]) it was 16 µg/mL (≈ 5.9 µM). Moreover, the “Toxicity A549 (EC50), Peptide concentration” value in the experiment on A549 is given as “(79.3 ± 7.2) μg/ml”. In addition, the “MIC, Stability in serum (MH)” value in [1] (No serum) is 2; in [1] (Serum (10% fetal bovine serum)), 4.

On to `CC(C)C[C@H](NC(=O)[C@H](Cc1ccc(O)cc1)NC(=O)[C@H](Cc1c[nH]cn1)NC(=O)[C@@H](NC(=O)[C@H](CC(C)C)NC(=O)[C@H](C)NC(=O)[C@H](C)NC(=O)[C@H](CCCNC(=N)N)NC(=O)CNC(=O)[C@@H](NC(=O)[C@H](Cc1c[nH]cn1)NC(=O)[C@H](CCCNC(=N)N)NC(=O)CNC(=O)[C@@H](NC(=O)[C@H](Cc1c[nH]cn1)NC(=O)[C@H](C)NC(=O)[C@H](C)NC(=O)[C@H](CCCNC(=N)N)NC(=O)[C@H](CCCNC(=N)N)NC(=O)[C@H](Cc1ccccc1)NC(=O)[C@H](Cc1ccccc1)NC(=O)[C@H](CO)NC(=O)CNC(=O)[C@H](Cc1c[nH]c2ccccc12)NC(=O)CN)C(C)C)C(C)C)[C@@H](C)O)C(N)=O` [Pleurocidin-KR] (H-GWGSFFRRAAHVGRHVGRAALTHYL-NH2; N-terminus assumed), for which the results for the “MIC, Stability in serum (MH)” value in experiment [1] (No serum) and in experiment [1] (Serum (10% fetal bovine serum)) were 4 and >128, respectively. For the same molecule, the “MIC on initial panels” value in experiment [1] was determined as 4. The MIC in experiment [1] (setting [7]) was > 32 µg/mL. For the same molecule, the “Peptide concentration necessary” value in experiment [2] (DPhPE/DPhPG) came out at 10 µM; in experiment [2] (DPhPG), 7.5 µM.
